Patent publication US9796713B2, “Tricyclic compounds as alpha-7 nicotinic acetylcholine receptor ligands” (BRISTOL-MYERS SQUIBB COMPANY, priority 2014, dated 2017)

target: T1, α-7 nicotinic ACh receptor ion channel (Rattus norvegicus, UniProt Q05941); experiment: FLIPR Ca2+-sensitive fluorescence assay of α7 nicotinic acetylcholine receptor channel function (agonist activity) in HEK 293 cells; format: cell-based; settings: Table 1; Ca2+ flux, HEK-293 cells expressing the channel
T1 construct: expressed in transfected cells
Procedure: I) α7 Nicotinic Acetycholine Receptor Binding. Membranes were prepared for binding using HEK293 cells stably expressing the rat α7 nicotinic acetycholine receptor (rat α7 nAChR). Cells were homogenized at 4° C. in hypotonic lysis buffer consisting of 10 mM Tris (pH 7.4), 5 mM EDTA and protease inhibitors and centrifuged at 32000×g for 20 minutes. The pellet was washed once in membrane wash buffer consisting of 50 mM Tris (pH 7.4), 1 mM EDTA and protease inhibitors and centrifuged at 32000×g for 20 minutes. This pellet was then resuspended in assay buffer consisting 50 mM KH2PO4 (pH 7.4 at 25° C.), 1 mM EDTA, 0.005% Triton-X 100 and 0.1% (v/v) Sigma Protease Inhibitor Cocktail. Aliquots were then frozen in dry ice/ethanol and kept at −80° C. until the day of the assay. II) A Ca^2+-Sensitive, Fluorescence-Based Assay α-7 for Nicotinic Acetylcholine Receptor Channel Function in Mammalian Cells (“FLIPR”). Summary: Lead compounds are evaluated for agonist activity at α-7, α3β4, α4αβ2, and α1β1δ1ε sub-types of nicotinic ACh receptor ion channels expressed in mammalian HEK 293 cells. Agonist potency and efficacy values are determined from kinetic fluorescence Ca^2+ influx measurements made using a 384 well FLIPR (Fluorescence Image Plate Reader). The utility of fluorescent indicators for measuring changes in intracellular divalent cation concentrations, particularly Ca^2+, for drug discovery endeavors is well documented (Rudiger, R., et al., Nature Reviews, 2003, 4:579-586; Gonzalez J. E., et al., Receptors and Channels, 2002, 8:283-295). In this assay, channel expressing HEK cell lines seeded in 384 well assay plates are loaded with a membrane permeant fluorescent Ca^2+ indicator dye, whose 510 nm green emission signal increases in response to elevation of intracellular Ca^2+ concentration. The basal fluorescence from the cells is monitored in real time, followed by the acute addition of test compounds. If the compound is an agonist at any of the non-selective cation channels, the latter open and allow the movement of extracellular Ca^2+ ions into the cell cytoplasm, where they bind to the Ca^2+ indicator dye, and produce an increase in fluorescence output signal, which is detected by a cooled CCD imaging camera.
Materials and Methods: Reagents: The acetomethoxy (AM) ester of the Ca^2+ indicator dye Fluo-4 was obtained from InVitrogen, (Carlsbad, Calif.). Acetylcholine and all buffer constituents were purchased from Sigma Chemical Company, St. Louis, Mo. G418 and Minimal Essential Medium were purchased from InVitrogen Life Technologies, Carlsbad, Calif. Fetal bovine serum was purchased from (InVitrogen, Carlsbad, Calif.).
Cell Culture: HEK-293 cells were grown in Minimal Essential Medium containing 10% (v/v) fetal bovine serum at 37° C. in a 5% CO2 incubator. HEK-293 cells stably expressing the ion channels were grown in the same medium with the addition of 500 μg/ml G418.
Ca^2+ flux assays of Ca^2+ channels expressed in HEK-293 cells: HEK-293 cells expressing the ion channels of interest were plated in 384 well, black-walled, clear-bottomed, poly-D-lysine coated plates at a density of ˜20,000 cells/well in 20 μl of Minimal Essential Medium containing 10% (v/v) fetal bovine serum and incubated for 2 days at 29° C. in a 5% CO2 incubator. Prior to assay, cells were loaded with the Fluo-4 AM ester. Cell loading was accomplished by removing the culture medium and replacing it with 30 μl/well of the AM ester of the dye (5 μM) mixed with Hanks Balanced Salt Solution (#14175-095) containing 20 mM HEPES, 2.5 mM probenecid, 0.5 mM CaCl2, 1 mM MgCl2 and 10 μM atropine. Dye loading was allowed to proceed for 90 minutes at room temperature at which time the dye loading solution was removed and replaced with 40 μl/well of Hanks buffer. Cells loaded with dye were loaded onto a FLIPR384 (Molecular Devices, Sunnyvale, Calif.). Fluo-4 dye was excited using the 488 nm line of an argon laser. Emission was filtered using a 540+/−30 nm bandpass filter. […]

T1 sequence (Q05941 23-502): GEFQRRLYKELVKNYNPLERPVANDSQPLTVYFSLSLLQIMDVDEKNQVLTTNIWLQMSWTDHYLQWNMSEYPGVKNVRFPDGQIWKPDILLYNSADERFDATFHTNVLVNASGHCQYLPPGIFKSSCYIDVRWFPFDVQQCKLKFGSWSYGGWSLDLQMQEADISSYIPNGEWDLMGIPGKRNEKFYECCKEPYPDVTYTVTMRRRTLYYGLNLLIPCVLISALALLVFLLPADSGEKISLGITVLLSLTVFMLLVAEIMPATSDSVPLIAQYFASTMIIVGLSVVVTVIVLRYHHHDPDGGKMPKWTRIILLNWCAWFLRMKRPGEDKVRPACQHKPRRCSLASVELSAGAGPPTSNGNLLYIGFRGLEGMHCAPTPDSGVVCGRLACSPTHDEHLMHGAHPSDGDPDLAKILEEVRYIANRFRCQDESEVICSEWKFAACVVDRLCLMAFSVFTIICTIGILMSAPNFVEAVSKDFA

| Structure (SMILES) | EC50 [µM] |
| --- | --- |
| O=C(c1n[nH]c2ccccc12)N1C2CC3CCN(C2)CC31 (stereo not drawn) [Example 1, (hexahydro-2,6-methanopyrrolo[2,3-c]pyridin-1(2H)-yl)(1H-indazol-3-yl)methanone] | 0.073 |
| O=C(c1cc2cccc(Cl)c2s1)N1C2CC3CCN(C2)CC31 (stereo not drawn) [Example 4, (7-chlorobenzo[b]thiophen-2-yl)(hexahydro-2,6-methanopyrrolo[2,3-c]pyridin-1(2H)-yl)methanone] | > 100 |
| Cn1cc(C(=O)N2C3CC4CCN(C3)CC42)c2ccccc21 (stereo not drawn) [Example 14, (Hexahydro-2,6-methanopyrrolo[2,3-c]pyridin-1(2H)-yl)(1-methyl-1H-indol-3-yl)methanone] | > 100 |
| Cn1nc(C(=O)N2C3CC4CCN(C3)CC42)c2ccccc21 (stereo not drawn) [Example 8, (Hexahydro-2,6-methanopyrrolo[2,3-c]pyridin-1(2H)-yl)(1-methyl-1H-indazol-3-yl)methanone] | > 100 |
| O=C(c1cc2ccccc2s1)N1C2CC3CCN(C2)CC31 (stereo not drawn) [Example 6, Benzo[b]thiophen-2-yl(hexahydro-2,6-methanopyrrolo[2,3-c]pyridin-1(2H)-yl)methanone] | 51 |
| O=C(c1cc2c(Cl)cccc2s1)N1C2CC3CCN(C2)CC31 (stereo not drawn) [Example 12, (4-chlorobenzo[b]thiophen-2-yl)(hexahydro-2,6-methanopyrrolo[2,3-c]pyridin-1(2H)-yl)methanone] | > 100 |
| O=C(c1n[nH]c2ccc(Br)cc12)N1C2CC3CCN(C2)CC31 (stereo not drawn) [Example 3, (5-bromo-1H-indazol-3-yl)(hexahydro-2,6-methanopyrrolo[2,3-c]pyridin-1(2H)-yl)methanone] | 0.7 |
| O=C(c1ccc(Cl)cc1)N1C2CC3CCN(C2)CC31 (stereo not drawn) [Example 13, (4-chlorophenyl)(hexahydro-2,6-methanopyrrolo[2,3-c]pyridin-1(2H)-yl)methanone] | > 100 |
| COc1cccc2[nH]nc(C(=O)N3C4CC5CCN(C4)CC53)c12 (stereo not drawn) [Example 15, (4-methoxy-1H-indazol-3-yl)(hexahydro-2,6-methanopyrrolo[2,3-c]pyridin-1(2H)-yl)methanone] | > 50 |
| O=C(c1cc2ccccc2o1)N1C2CC3CCN(C2)CC31 (stereo not drawn) [Example 5, Benzofuran-2-yl(hexahydro-2,6-methanopyrrolo[2,3-c]pyridin-1(2H)-yl)methanone] | > 100 |
| COc1ccc2[nH]nc(C(=O)N3C4CC5CCN(C4)CC53)c2c1 (stereo not drawn) [Example 10, (5-methoxy-1H-indazol-3-yl)(hexahydro-2,6-methanopyrrolo[2,3-c]pyridin-1(2H)-yl)methanone] | > 100 |
| O=C(c1nsc2ccccc12)N1C2CC3CCN(C2)CC31 (stereo not drawn) [Example 11, Benzo[d]isothiazol-3-yl(hexahydro-2,6-methanopyrrolo[2,3-c]pyridin-1(2H)-yl)methanone] | 7.1 |

same assay, conditions: Table 2; Ca2+ flux, HEK-293 cells expressing the channel

| Structure (SMILES) | EC50 [µM] |
| --- | --- |
| Cc1ccc2c(C(=O)N3[C@H]4C[C@@H]5CC[N@](C4)C[C@@H]53)n[nH]c2c1 [Example 23, (6-methyl-1H-indazol-3-yl)((2S,3aS,6R,7aR)-hexahydro-2,6-methanopyrrolo[2,3-c]pyridin-1(2H)-yl)methanone] | 0.039 |
| O=C(c1cc(-c2ccccc2)[nH]n1)N1[C@H]2C[C@@H]3CC[N@](C2)C[C@@H]31 [Example 19, ((2S,3aS,6R,7aR)-hexahydro-2,6-methanopyrrolo[2,3-c]pyridin-1(2H)-yl)(5-phenyl-1H-pyrazol-3-yl)methanone] | > 100 |
| O=C(c1n[nH]c2c(Cl)cccc12)N1[C@H]2C[C@@H]3CC[N@](C2)C[C@@H]31 [Example 22, (7-Chloro-1H-indazol-3-yl)((2S,3aS,6R,7aR)-hexahydro-2,6-methanopyrrolo[2,3-c]pyridin-1(2H)-yl)methanone] | 3.6 |
| O=C(c1n[nH]c2cc(F)ccc12)N1[C@H]2C[C@@H]3CC[N@](C2)C[C@@H]31 [Example 21, (6-fluoro-1H-indazol-3-yl)((2S,3aS,6R,7aR)-hexahydro-2,6-methanopyrrolo[2,3-c]pyridin-1(2H)-yl)methanone] | 0.08 |
| O=C(c1n[nH]c2cc(Cl)ccc12)N1[C@H]2C[C@@H]3CC[N@](C2)C[C@@H]31 [Example 17, (6-chloro-1H-indazol-3-yl)((2S,3aS,6R,7aR)-hexahydro-2,6-methanopyrrolo[2,3-c]pyridin-1(2H)-yl)methanone] | 0.03 |
| O=C(c1cc(C2CC2)[nH]n1)N1[C@H]2C[C@@H]3CC[N@](C2)C[C@@H]31 [Example 20, ((2S,3aS,6R,7aR)-hexahydro-2,6-methanopyrrolo[2,3-c]pyridin-1(2H)-yl)(5-cyclopropyl-1H-pyrazol-3-yl)methanone] | 26 |

same assay, conditions: Table 3; Ca2+ flux, HEK-293 cells expressing the channel

| Structure (SMILES) | EC50 [µM] |
| --- | --- |
| O=C(c1cc(-c2ccccc2)[nH]n1)N1[C@@H]2C[C@H]3CC[N@@](C2)C[C@H]31 [Example 32, ((2R,3aR,6S,7aS)-hexahydro-2,6-methanopyrrolo[2,3-c]pyridin-1(2H)-yl)(5-phenyl-1H-pyrazol-3-yl)methanone] | > 100 |
| O=C(c1n[nH]c2cc(F)ccc12)N1[C@@H]2C[C@H]3CC[N@@](C2)C[C@H]31 [Example 26, (6-fluoro-1H-indazol-3-yl)((2R,3aR,6S,7aS)-hexahydro-2,6-methanopyrrolo[2,3-c]pyridin-1(2H)-yl)methanone] | 0.43 |
| O=C(c1n[nH]c2c(Cl)cccc12)N1[C@@H]2C[C@H]3CC[N@@](C2)C[C@H]31 [Example 28, (7-chloro-1H-indazol-3-yl)((2R,3aR,6S,7aS)-hexahydro-2,6-methanopyrrolo[2,3-c]pyridin-1(2H)-yl)methanone] | 36 |
| O=C(c1nccc2ccccc12)N1[C@@H]2C[C@H]3CC[N@@](C2)C[C@H]31 [Example 25, ((2R,3aR,6S,7aS)-hexahydro-2,6-methanopyrrolo[2,3-c]pyridin-1(2H)-yl)(isoquinolin-1-yl)methanone] | 45 |
| O=C(c1n[nH]c2cc(Cl)ccc12)N1[C@@H]2C[C@H]3CC[N@@](C2)C[C@H]31 [Example 16, (6-chloro-1H-indazol-3-yl)((2R,3aR,6S,7aS)-hexahydro-2,6-methanopyrrolo[2,3-c]pyridin-1(2H)-yl)methanone] | 0.086 |
| O=C(c1n[nH]c2ncccc12)N1[C@@H]2C[C@H]3CC[N@@](C2)C[C@H]31 [Example 31, ((2R,3aR,6S,7aS)-hexahydro-2,6-methanopyrrolo[2,3-c]pyridin-1(2H)-yl)(1H-pyrazolo[3,4-b]pyridin-3-yl)methanone] | 9.2 |
| O=C(c1noc2ccccc12)N1[C@@H]2C[C@H]3CC[N@@](C2)C[C@H]31 [Example 29, benzo[d]isoxazol-3-yl((2R,3aR,6S,7aS)-hexahydro-2,6-methanopyrrolo[2,3-c]pyridin-1(2H)-yl)methanone] | 3.1 |
| O=C(c1n[nH]c2ccccc12)N1[C@@H]2C[C@H]3CC[N@@](C2)C[C@H]31 [Example 33, ((2R,3aR,6S,7aS)-hexahydro-2,6-methanopyrrolo[2,3-c]pyridin-1(2H)-yl)(1H-indazol-3-yl)methanone] | 0.15 |
| Cc1ccc2c(C(=O)N3[C@@H]4C[C@H]5CC[N@@](C4)C[C@H]53)n[nH]c2c1 [Example 30, (6-methyl-1H-indazol-3-yl)((2R,3aR,6S,7aS)-hexahydro-2,6-methanopyrrolo[2,3-c]pyridin-1(2H)-yl)methanone] | 0.19 |
